Drawing on ChEMBL document CHEMBL1201862, “PubChem BioAssay data set” (2004), this text covers AC50, IC50 and EC50 for 33 molecules.

The source made the active and inactive calls.

For assay [1], the target named is T1, Cytochrome P450 1A2 (Homo sapiens, UniProt P05177).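 Further: PubChem cytochrome P450 panel assay, CYP1A2 panel member.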
T1 sequence (P05177 whole entry): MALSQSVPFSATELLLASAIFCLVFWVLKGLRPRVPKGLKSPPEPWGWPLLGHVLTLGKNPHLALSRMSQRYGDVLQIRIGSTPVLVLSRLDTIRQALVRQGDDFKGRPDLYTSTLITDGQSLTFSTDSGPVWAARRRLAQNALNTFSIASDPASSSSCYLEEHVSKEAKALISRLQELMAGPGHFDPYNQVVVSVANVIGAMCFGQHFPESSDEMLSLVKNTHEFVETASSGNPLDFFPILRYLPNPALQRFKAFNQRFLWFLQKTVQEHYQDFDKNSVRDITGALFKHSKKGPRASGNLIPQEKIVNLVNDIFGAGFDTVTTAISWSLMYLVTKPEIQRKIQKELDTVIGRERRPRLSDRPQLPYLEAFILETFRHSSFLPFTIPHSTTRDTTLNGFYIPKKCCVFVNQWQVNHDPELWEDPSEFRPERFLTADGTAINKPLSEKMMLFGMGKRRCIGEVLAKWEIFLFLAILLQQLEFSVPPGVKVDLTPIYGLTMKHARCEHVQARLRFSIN

The target of assay [2] is Cytochrome P450 2C9 (Homo sapiens, UniProt P11712).
Cytochrome P450 2C9, sequence (P11712 whole entry): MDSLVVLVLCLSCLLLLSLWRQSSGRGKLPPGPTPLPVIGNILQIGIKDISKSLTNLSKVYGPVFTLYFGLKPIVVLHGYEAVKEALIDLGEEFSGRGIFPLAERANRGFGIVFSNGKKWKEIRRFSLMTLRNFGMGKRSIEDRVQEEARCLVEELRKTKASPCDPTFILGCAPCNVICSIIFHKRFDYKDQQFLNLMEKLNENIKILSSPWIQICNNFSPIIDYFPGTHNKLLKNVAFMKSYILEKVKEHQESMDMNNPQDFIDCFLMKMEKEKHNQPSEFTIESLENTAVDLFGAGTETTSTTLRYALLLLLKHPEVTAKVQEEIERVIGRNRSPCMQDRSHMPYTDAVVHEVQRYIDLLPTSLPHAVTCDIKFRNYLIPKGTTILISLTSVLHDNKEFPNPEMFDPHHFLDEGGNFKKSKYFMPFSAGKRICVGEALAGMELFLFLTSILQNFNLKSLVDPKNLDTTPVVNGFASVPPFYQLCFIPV
A short description of assay [3]: P. falciparum Dd2 growth inhibitors, dose response, SYBR Green, cherry-picked samples (AID 1159567). The class given is functional, cell-based.
The nature of assay [4]: intracellular Trypanosoma cruzi inhibitors in host cells – cell-based, plate reader, cherry-pick samples, set 3, dose response (AID 651818).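 Further: compounds incubated with infected cells for about four days.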 Type of assay: functional.
Assay [5] addresses T2, Ubiquitin-conjugating enzyme E2 N (Homo sapiens, UniProt P61088).
T2 sequence (P61088 whole entry): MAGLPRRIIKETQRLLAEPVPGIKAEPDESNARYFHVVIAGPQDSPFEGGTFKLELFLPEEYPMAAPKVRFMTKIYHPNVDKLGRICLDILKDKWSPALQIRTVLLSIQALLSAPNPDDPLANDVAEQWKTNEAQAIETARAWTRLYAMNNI
The class given is functional.

Assay [6] addresses Paired box protein Pax-8 (Homo sapiens, UniProt Q06710). Briefly: inhibitors of PAX8-driven TPO luciferase reporter, dose response, RMG-I cells, cherry-pick (AID 687027).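 Further: luciferase reporter driven by Pax8 target thyroperoxidase promoter measured by SteadyGlo luminescence.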 The class given is functional, cell-based.
The target of assay [7] is Cytochrome P450 3A4 (Homo sapiens, UniProt P08684).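 Further: CYP3A4 tested as one member of a cytochrome P450 panel screen.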
Cytochrome P450 3A4, sequence (P08684 whole entry): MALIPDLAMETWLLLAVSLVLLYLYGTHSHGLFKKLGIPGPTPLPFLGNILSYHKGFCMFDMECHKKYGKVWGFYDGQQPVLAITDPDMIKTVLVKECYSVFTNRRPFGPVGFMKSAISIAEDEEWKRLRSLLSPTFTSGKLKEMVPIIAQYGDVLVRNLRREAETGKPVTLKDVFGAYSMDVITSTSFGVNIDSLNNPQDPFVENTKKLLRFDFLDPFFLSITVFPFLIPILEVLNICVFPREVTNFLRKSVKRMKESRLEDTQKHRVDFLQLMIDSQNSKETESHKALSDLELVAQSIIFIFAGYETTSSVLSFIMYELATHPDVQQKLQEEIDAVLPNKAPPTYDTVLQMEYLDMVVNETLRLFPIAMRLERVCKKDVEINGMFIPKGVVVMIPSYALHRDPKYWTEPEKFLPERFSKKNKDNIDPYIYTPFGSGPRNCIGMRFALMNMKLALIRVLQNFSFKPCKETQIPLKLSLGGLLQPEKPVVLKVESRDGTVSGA
Assay [8] addresses Cytochrome P450 2C19 (Homo sapiens, UniProt P33261). Briefly: Cytochrome panel assay with activity outcomes. Panel member name: p450-cyp2c19 Compounds with AC50 equal or less than 10 uM are considered active. Type of assay: functional. Particulars: read-out: AC50.
The nature of assay [9]: growth suppression of PTEN-null colon cells, dose response, cell-based, HCT116 PTEN knockout (AID 1047).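 Further: HCT116 colon tumor cells with PTEN knocked out; cells exposed to compound for 60 hours before readout; potency for loss of cell viability measured by luminescence.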 The class given is functional.
Assay [10] can be described thus: growth suppression of beta-catenin-knockout colon cells, dose response, cell-based, HCT116, human colon tumor (AID 1045).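 Further: HCT116 colon tumor cells with beta catenin knocked out; cells exposed to compound for 60 hours.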 The class given is functional.
In assay [11] the target is T3, Protein skinhead-1 (Caenorhabditis elegans, UniProt P34707).
T3 sequence (P34707 whole entry): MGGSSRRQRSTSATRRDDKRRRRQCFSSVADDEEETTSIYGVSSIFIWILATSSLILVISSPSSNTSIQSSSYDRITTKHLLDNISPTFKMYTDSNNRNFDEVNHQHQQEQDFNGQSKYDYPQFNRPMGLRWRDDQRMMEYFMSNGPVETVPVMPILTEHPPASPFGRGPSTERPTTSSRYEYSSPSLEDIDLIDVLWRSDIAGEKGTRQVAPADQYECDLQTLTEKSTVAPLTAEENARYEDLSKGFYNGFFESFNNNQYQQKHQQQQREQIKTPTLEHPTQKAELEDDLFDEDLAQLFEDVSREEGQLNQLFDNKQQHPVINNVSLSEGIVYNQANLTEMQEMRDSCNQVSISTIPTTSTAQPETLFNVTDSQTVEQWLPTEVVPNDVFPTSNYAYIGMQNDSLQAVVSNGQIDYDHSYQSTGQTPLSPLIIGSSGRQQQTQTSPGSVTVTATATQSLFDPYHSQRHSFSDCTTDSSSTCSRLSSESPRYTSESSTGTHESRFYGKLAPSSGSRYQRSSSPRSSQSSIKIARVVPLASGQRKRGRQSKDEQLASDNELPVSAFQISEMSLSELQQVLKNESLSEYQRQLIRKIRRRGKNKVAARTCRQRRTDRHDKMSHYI
Type of assay: functional.

Assay [12] in a line: Shn3 3'UTR reporter inhibitors, dose response, cell-based, Clone20 osteoblasts, firefly luciferase, cherry-picked (AID 624132).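 Further: firefly luciferase luminescence from reporter carrying the Shn3 3'UTR in osteoblasts.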 Type of assay: functional.
The nature of assay [13]: HepG2 cell cytotoxicity, dose response, cytotoxicity control for Shn3 inhibitor project, CellTiter-Glo, cherry-picked (AID 624134). The class given is functional, cell-based. A general note: In ATP-based viability assays light output follows the ATP content of the culture.
Assay [14] is described as follows: control 3'UTR Renilla luciferase suppression, dose response, counter-screen for Shn3 inhibitor project, cell-based, Clone20-Shn3RL, cherry-picked (AID 624133). Type of assay: functional. (In general: The purpose of a counterscreen is to sort out artefacts and off-target activity.)

Cytochrome P450 2C19, sequence (P33261 whole entry): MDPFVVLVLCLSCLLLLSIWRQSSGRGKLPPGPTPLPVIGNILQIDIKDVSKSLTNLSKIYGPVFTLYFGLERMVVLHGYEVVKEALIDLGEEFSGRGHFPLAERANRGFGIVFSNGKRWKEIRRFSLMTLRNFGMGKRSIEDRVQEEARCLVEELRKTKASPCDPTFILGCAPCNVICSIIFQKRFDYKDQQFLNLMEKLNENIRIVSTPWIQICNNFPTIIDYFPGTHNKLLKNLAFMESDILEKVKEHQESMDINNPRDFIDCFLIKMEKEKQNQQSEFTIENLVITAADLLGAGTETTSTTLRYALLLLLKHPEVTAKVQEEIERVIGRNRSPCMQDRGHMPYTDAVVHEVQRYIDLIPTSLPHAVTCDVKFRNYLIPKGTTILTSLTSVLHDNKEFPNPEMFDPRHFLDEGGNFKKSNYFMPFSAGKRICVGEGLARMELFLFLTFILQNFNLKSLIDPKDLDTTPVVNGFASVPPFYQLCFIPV
Paired box protein Pax-8, sequence (Q06710 whole entry): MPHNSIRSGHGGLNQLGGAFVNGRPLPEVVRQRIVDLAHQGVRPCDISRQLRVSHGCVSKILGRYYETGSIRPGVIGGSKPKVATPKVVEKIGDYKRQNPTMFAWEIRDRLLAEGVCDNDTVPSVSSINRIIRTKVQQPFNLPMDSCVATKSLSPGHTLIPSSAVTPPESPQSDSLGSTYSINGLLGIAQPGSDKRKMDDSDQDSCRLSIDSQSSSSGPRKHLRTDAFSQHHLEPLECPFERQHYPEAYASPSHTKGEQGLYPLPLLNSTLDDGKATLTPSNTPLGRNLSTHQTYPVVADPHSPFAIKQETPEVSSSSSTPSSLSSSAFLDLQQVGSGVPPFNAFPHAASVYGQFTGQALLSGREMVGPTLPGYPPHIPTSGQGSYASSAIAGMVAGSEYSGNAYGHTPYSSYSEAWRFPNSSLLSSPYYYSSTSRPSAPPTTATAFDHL

A word on the AC50: it is the midpoint of the concentration-response curve, whichever way the signal moves. Take `CN(Cc1cc(Cl)cc(Cl)c1O)Cc1c(O)ccc2ccccc12`: the figures for the AC50 in assay [1] and in [2] were 0.631 µM (inconclusive) and 3.16 µM (inconclusive), respectively.

Consider `N#C[C@H]1[C@@H](c2ccc(C#CC3CC3)cc2)[C@H](CO)N1S(=O)(=O)c1ccccc1`, for which, in [3], the AC50 was 4.18 µM (active).

With `C[C@@H]1CN([C@H](C)CO)C(=O)Cc2cc(NS(=O)(=O)c3ccc(Cl)cc3)ccc2O[C@H]1CN(C)Cc1ccc(C(=O)Nc2ccccc2N)cc1`, the half-maximal activity concentration (AC50) in [4] is 4.53 µM (active).

By IC50 is commonly meant the concentration at which inhibition is half-maximal. As to `O=C(C1=C[C@@H](c2coc3ccccc3c2=O)C[C@@H](OCc2ccc(CO)cc2)O1)N1CCN(Cc2ccc3c(c2)OCO3)CC1`, the IC50 in assay [5] was > 20 µM (inactive).

Regarding `C[C@@H]1CCCCO[C@@H](CN(C)Cc2ccccc2)[C@@H](C)CN([C@H](C)CO)C(=O)c2cc(NC(=O)Nc3ccc(C(F)(F)F)cc3)ccc2O1`, the AC50 in assay [4] was 1.64 µM (active); in assay [6] it was 10.1 µM (active).

On to `O=C(NC1CCCCC1)C12CC3CC(C1)CC(n1cncn1)(C3)C2`, for which the AC50 in [7] was 3.55 µM (inconclusive); in assay [8], 28.2 µM (inconclusive); in [1] it was 28.2 µM (inconclusive); in assay [2], 5.01 µM (inconclusive).

For `CC(C)CN(Cc1c(O)ccc2c3c(c(=O)oc12)CCC3)CC(C)C`, the AC50 in assay [7] is 17.8 µM (inconclusive); in [8], 20 µM (inconclusive); in assay [1] it was 15.8 µM (inconclusive).

Consider `C[C@H](CO)N1C[C@H](C)[C@H](CN(C)Cc2ccc(-c3ccccc3)cc2)Oc2ccc(NC(=O)Nc3ccc(C(F)(F)F)cc3)cc2C1=O`, for which the half-maximal activity concentration (AC50) in assay [4] is 5.37 µM (active).

Regarding `COc1ccc(CN(C)C[C@@H]2Oc3ccc(NS(=O)(=O)c4ccc(Cl)cc4)cc3CC(=O)N([C@H](C)CO)C[C@H]2C)cc1`, in assay [4], the AC50 is 2.61 µM (active).

Usually EC50 stands for the concentration giving half of the maximal effect. Regarding `Cc1ccc(/C=C/C(=O)c2ccccc2)cc1`, the EC50 in assay [9] was 22.6 µM (active); in [10], 20.1 µM (active).

`COc1ccc(CN2C[C@@H](C)[C@H](OC)CN(C)C(=O)c3cc(NC(=O)c4nc5ccccc5s4)ccc3OC[C@H]2C)cc1`: the AC50 in assay [3] was 4.08 µM (active).

For the molecule `Cn1c(-c2ccc(CN3CCCCC3)o2)nc2ccccc21`, the IC50 in assay [11] is > 100 µM (inactive). Further, the AC50 is 28.2 µM (inconclusive) in [7], 12.6 µM (inconclusive) in assay [1] and 2 µM (inconclusive) in assay [2].

In the case of `C[C@H](CO)N1C[C@H](C)[C@@H](CN(C)Cc2ccc(C(=O)Nc3ccccc3N)cc2)Oc2c(NC(=O)Nc3ccc(F)cc3)cccc2C1=O`, the AC50 in [4] is 4.17 µM (active).

Consider `Cc1ccccc1S(=O)(=O)N1[C@H](CO)[C@@H](c2ccc(C#CC3CCCCC3)cc2)[C@@H]1C#N`, for which the AC50 in [3] was 4.12 µM (active).

With `C[C@H](CO)N1C[C@H](C)[C@H](CN(C)Cc2ccc(C(=O)Nc3ccccc3N)cc2)Oc2ccc(NS(=O)(=O)c3cccs3)cc2CC1=O`, the half-maximal activity concentration (AC50) in assay [4] was 4.59 µM (active).

On to `O=C(CCCCCCC(=O)Nc1ccccc1O)N/N=C/c1ccc(OCc2ccccc2)cc1O`, for which the AC50 in assay [4] is 1.16 µM (active).

In the case of `CC(C)C[C@@H]1CN=C(N)N1C[C@@H]1CCCN1C[C@@H](C(C)C)N1C[C@@H](Cc2ccccc2)N(CCCC2CCCC2)C1=N`, in assay [5], the IC50 was > 20 µM (inactive).

With `CCCNC(=O)N1CC2(CCN(C(=O)CN(C)C)CC2)c2c(n(C)c3cc(OC)ccc23)[C@H]1CO`, the AC50 in [3] is 4.6 µM (active).

With `Oc1ccc(C[C@@H]2CNCCN2CCCCC2CCCCC2)cc1`, the IC50 in assay [5] was > 20 µM (inactive).

For the molecule `NC1=NC[C@H](c2ccccc2)N1CCCCC1CCCCC1`, the values for the AC50 in assay [12], in [13] and in [14] were 4.23 µM (active), 43.1 µM (active) and 3.11 µM (active), respectively. For the same molecule, the IC50 in [5] was > 20 µM (inactive).

As for `C[C@H](CO)N1C[C@H](C)[C@H](CN(C)Cc2ccc(C(=O)Nc3ccccc3N)cc2)Oc2ccc(NC(=O)Nc3ccc(F)cc3)cc2CC1=O`, the AC50 in [4] is 2.26 µM (active).

For the molecule `CCOC(=O)Cc1csc(NC(=O)c2c(-c3c(Cl)cccc3Cl)noc2C)n1`, the AC50 in assay [1] was 14.1 µM (inconclusive).

In the case of `Cc1cc(NC(=O)c2nn(C)c(C)c2[N+](=O)[O-])no1`, the AC50 in assay [1] is 25.1 µM (inconclusive).

As for `C[C@@H]1CN([C@H](C)CO)C(=O)c2cccc(NC(=O)Nc3ccc(C(F)(F)F)cc3)c2O[C@H]1CN(C)C(=O)Nc1ccc(C(F)(F)F)cc1`, in assay [4], the half-maximal activity concentration (AC50) was 6.75 µM (active).

For the molecule `OC[C@@H]1Nc2ccc(C#Cc3cccc(F)c3)cc2[C@@H]2NCC[C@H]12`, the AC50 in assay [3] is 2.83 µM (active).

`C[C@@H]1CCCCO[C@H](CN(C)Cc2ccc(Cl)c(Cl)c2)[C@@H](C)CN([C@H](C)CO)C(=O)c2cc(NS(=O)(=O)c3ccc(Cl)cc3)ccc2O1`: in assay [4], the concentration at half-maximal activity (AC50) is 4.22 µM (active).

In the case of `O=C(Oc1ccccc1/C=C\C(=O)c1cc2ccccc2o1)c1cccc(F)c1`, the EC50 in assay [9] and in assay [10] was 8.35 µM (active) throughout.

Consider `C[C@H](CO)N1C[C@H](C)[C@@H](CN(C)Cc2ccc(-c3ccccc3)cc2)Oc2c(NC(=O)NC3CCCCC3)cccc2C1=O`, for which the AC50 in assay [4] was 4.23 µM (active).

With `O=C(/C=C/c1ccc(-c2ccccc2[N+](=O)[O-])o1)c1ccc(F)cc1`, the figures for the EC50 in assay [9] and in [10] were 28.8 µM (active) and 35.7 µM (active), respectively.

Take `C[C@@H]1CN([C@@H](C)CO)C(=O)c2c(c3ccccc3n2C)-c2ccccc2CO[C@H]1CN(C)S(=O)(=O)c1ccc(C(F)(F)F)cc1`: the AC50 in assay [3] was 3.02 µM (active).

As to `COc1ccc(-c2nc3cnc(Nc4ccccc4)nc3n(Cc3cccs3)c2=O)cc1`, the results for the AC50 in assay [1] and in assay [2] were 25.1 µM (inconclusive) and 12.6 µM (inconclusive), respectively.

`CC(C)CCNC(=O)C12CN(Cc3ccccc3)CC1C(c1cccc([N+](=O)[O-])c1)=NO2` (stereo not given): the AC50 in assay [1] was 14.1 µM (inconclusive).

Consider `COC(=O)[C@@]12CCCCN1[C@H](c1ccc(-c3cc(C(C)=O)cs3)c(OC)c1)[C@H]1C(=O)N(C)C(=O)[C@H]12`, for which the IC50 in assay [5] was > 20 µM (inactive).
